Experimental data from US20230097253A1, “NOVEL QUINAZOLINE COMPOUND AS THERAPEUTIC AGENT FOR METABOLIC DISORDERS” (BIOWAY., INC, priority 2020, published 2023).

Assays:
MRC5 cells = assay: Cytotoxicity in normal cells, CCK8 analysis; format: cell-based; settings: 0.5-100 μM, 24 hours, CCK8, compared with the control group, FIG. 2
Protocol: For confirmation of cytotoxicity in normal cells, MRC (i.e., normal lung cells) were cultured in an incubator set at 37° C. with 95% humidity and 5% CO2.
Additionally, MRC5 cells were proliferated to a confluency of 70-80% on a plate using a growth medium (Minimum Essential Medium (MEM) supplemented with 10% fetal bovine serum (FBS), 100 U/ml of penicillin, and 100 μg/ml of streptomycin), and then used for the experiment.
In order to confirm the cytotoxicity of the compound according to an embodiment of the present invention, CCK8 analysis was performed for the prepared MRC5 cells.
First, after culturing MRC5 cells to 70-80% confluency in a 24-well plate, the test material was diluted in a culture medium except for the control group and treated with 0.5 μM, 2.5 μM, 10 μM, 20 μM, 40 μM, 80 μM, and 100 μM.
After 24 hours of treatment of the test material, CCK8 solution was dispensed 10 μL per well and incubated for 2 hours in a state where the light was blocked.
After 2 hours, 200 μL of the culture solution from each well was transferred to a 96 well plate and absorbance was measured at 450 nm.

[1] = test system: steatosis-induced Huh7 cells; assay: Protein expression levels (western blot) for MOA confirmation in steatosis-induced liver cells; format: cell-based; settings: 250 μM PA, 0.25-40 μM compound, 24 hours, FIG. 1
Protocol: An experiment to confirm the expression levels of proteins in steatosis-induced liver cells was conducted as follows.
To determine the protein expression level for MOA confirmation in steatosis-induced liver cells BW-3290 of the present invention, Huh7 cells were cultured in an incubator set at 37° C., 95% humidity, and 5% CO2.
Additionally, Huh7 cells were proliferated to a confluency of 80-90% on a plate using a growth medium (Dulbecco's modified Eagle's medium (DMEM) supplemented with 10% fetal bovine serum (FBS), 100 U/ml of penicillin, and 100 μg/ml of streptomycin), and then used for the experiment.
To induce steatosis in Huh-7 cells in each well except for control cells, the Huh-7 cells were treated with PA bound to 2% BSA at a concentration of 250 μM except for the control, and the control cells were pretreated with 2% BSA without FA.
The cells in each well were treated with the compounds of the present invention, R- or S-form of BW-3290, 0.25 μM, 0.5 μM, 1 μM, 5 μM, 10 μM, 20 μM, and 40 μM and then cultured for 24 hours. The control cells and PA treated cells were treated with DMSO. All media were aspirated and the cells were gently washed 3 times with cold PBS.
A cold lysis buffer containing 150 mM sodium chloride (NaCl), 5 mM ethylenediaminetetraacetic acid (EDTA), pH 8.0, […] 4-(2-hydroxyethyl)-1-piperazineethanesulfonic acid (HEPES), 1% nonylphenoxypolyethoxylethanol (NP-40), 2 μg/mL aprotinin, 1 μM pepstatin A, 10 μM leupeptin, 1 mM sodium fluoride (NaF), 0.2 mM sodium orthovanadate ([…]), and 1 μM phenylmethylsulfonyl fluoride (PMSF) was added thereto.
A whole cell lysate was collected and gently pipetted at least 10 times to ensure complete lysis. The sample was incubated on ice for 20 minutes and centrifuged 4° C. at 13,000 rpm, for 20 minutes. The supernatant was collected, 5× sodium dodecyl sulfate (SDS) sample buffer containing 50 mM Tris-CI (pH 6.8), 2% SDS, 0.1% bromopheol blue, and 10% glycerol was added to the sample, and boiled at 95° C. for 5 minutes.
The wells of 10% SDS-polyacrylamide gel electrophoresis (SDS-PAGE) were loaded with the same amount of a protein along with the molecular weight marker. The gel was electrophoresed at 100 V for 30 minutes in an electrophoresis chamber (Bio-Rad Laboratories, Hercules, Calif., USA).
A polyvinylidene fluoride (PVDF) membrane (MilliporeSigma, Burlington, Mass., USA) was activated with methanol (MeOH) for 1 minute and washed with a transfer buffer containing 25 mM Tris, 190 mM glycine, and 20% MeOH. The gel was placed in the transfer buffer for 10 minutes.
The transfer sandwich (in the order of paper, gel, membrane, and paper) was assembled and it was checked whether no air bubbles were trapped in the transfer sandwich. The transfer sandwich was placed in a transfer tank (Bio-Rad Laboratories) and ice cubes were placed in the transfer tank to prevent the transfer buffer from being heated. The protein was transferred from the gel to the PVDF membrane at 100 V for 30 minutes.
After washing the PVDF membrane with distilled water, the membrane was blocked for 1 hour at room temperature with a blocking buffer prepared by 5% skim milk (Difco Laboratories, Franklin Lakes, N.J., USA) in TBST containing 0.1% tween 20 (TBST, Sigma-Aldrich).
The membrane was incubated in a buffer in which the primary antibody was appropriately diluted. The membrane of fatty acid synthase (FAS), phosphor-AMP-activated protein kinase (p-AMPK), SIRT1, and SIRT3 was washed 3 times with TBST for 5 minutes each.
The membrane was incubated with a recommended dilution of horseradish peroxidase (HRP)-conjugated secondary mouse antibody in blocking buffer at room temperature for 1 hour.
The membrane was washed 5 times with TBST for 5 minutes each. Excess reagent was removed and the membrane was covered with a clear plastic wrap.
ECL prime western blotting detection reagent (GE Healthcare, Chicago, Ill., USA) was applied according to the manufacturer's recommendations. […]

SMILES | cytotoxicity in normal cells (MRC5 cells) | SIRT1 protein expression level [1] | SIRT3 protein expression level [1] | level of FAS (fat synthesis protein) [1] | p-AMPK protein expression level [1]
CC(C)C(Nc1ncnc2nc[nH]c12)c1nc2cccc(Cl)c2c(=O)n1-c1ccccc1 (racemic) [RS-form, 2-(1-((7H-purin-6-yl)amino)-2-methylpropyl)-5-chloro-3-phenylquinazolin-4(3H)-one] | showed some toxicity |  |  |  | 
CC(C)[C@@H](Nc1ncnc2nc[nH]c12)c1nc2cccc(Cl)c2c(=O)n1-c1ccccc1 [R-form of BW-3290, (R)-2-(1-((7H-purin-6-yl)amino)-2-methylpropyl)-5-chloro-3-phenylquinazolin-4(3H)-one] | did not show toxicity | increased | increased | decreased in a concentration-dependent manner | increased
CC(C)[C@H](Nc1ncnc2nc[nH]c12)c1nc2cccc(Cl)c2c(=O)n1-c1ccccc1 [S-form, (S)-2-(1-((7H-purin-6-yl)amino)-2-methylpropyl)-5-chloro-3-phenylquinazolin-4(3H)-one] | showed some toxicity | increased | increased |  | increased
